The assay has as its system Moraxella catarrhalis. In words: Broth microdilution MIC testing (CLSI). Format: cell-based. As to conditions: for MIC: read-out: MIC (lowest concentration of drug that inhibited visible growth). The procedure:
In this study, to evaluate the spectrum of activity, cannabidiol (CBD) was profiled against Moraxella. Testing was conducted following guidelines recommended by the Clinical and Laboratory Standards Institute (CLSI, 1-4), using vancomycin, meropenem, levofloxacin, and gentamicin as comparators for testing aerobic bacteria.
Test agents were supplied by Micromyx. Stock solutions of all compounds were prepared on the first day of testing at 101× the highest test concentration using solvents recommended by CLSI. CBD was prepared fresh on each of testing.
Prior to testing, Moraxella were streaked from frozen vials onto Trypticase Soy Agar (TSA) with 5% sheep blood (Becton Dickinson [BD]; Sparks, Md.; Lot No. 9192895), and incubated at 35° C. overnight.
Cation-adjusted Mueller-Hinton broth (CAMHB; BD; Lot No. 8190586) was used for MIC testing.
MIC values were determined using a broth microdilution procedure described by CLSI (1-4). Automated liquid handlers (Multidrop 384, Labsystems, Helsinki, Finland; Biomek 2000 and Biomek FX, Beckman Coulter, Fullerton, Calif.) were used to conduct serial dilutions and liquid transfers.
To prepare the drug mother plates, which would provide the serial drug dilutions for the replicate daughter plates, the wells of columns 2 through 12 of standard 96-well microdilution plates (Costar 3795) were filled with 150 μl of the designated diluent for each row of drug. The test article and comparator compounds (300 μl at 101× the highest concentration to be tested) were dispensed into the appropriate wells in column 1. The Biomek 2000 was then used to make 2-fold serial dilutions in the mother plates from column 1 through column 11. The wells of column 12 contained no drug and served as the organism growth control wells for the assay.
The daughter plates were loaded with 190 μL per well of the appropriate test medium for the tested organism using the Multidrop 384. The daughter plates were completed on the Biomek FX instrument which transferred 2 μL of drug solution from each well of a mother plate to the corresponding well of each daughter plate in a single step.
A standardized inoculum of each test organism was prepared per CLSI methods (1-4). The inoculum for each organism was dispensed into sterile reservoirs divided by length (Beckman Coulter), and the Biomek 2000 was used to inoculate the plates. Daughter plates were placed on the Biomek 2000 work surface in reverse orientation so that inoculation took place from low to high drug concentration. Plates were inoculated with 10 μL of the inoculum resulting in a final cell density of approximately 5×10^5 CFU/mL per well.
The plates for testing of Moraxella were stacked 3 to 4 high, covered with a sterile lid, and incubated at 35° C. for the time periods specified in CLSI (1-4). Plates were incubated for approximately 16 to 20 hr. Following incubation, the microplates were removed from the incubator and viewed from the bottom using a plate viewer. […] The MIC was read and recorded as the lowest concentration of drug that inhibited visible growth of the organism.
Background: Broth dilution looks for growth in wells or tubes with falling amounts of substance.

Where [1] appears, read: Moraxella catarrhalis isolate MMX 3782, CAMHB, 35° C., approximately 16 to 20 hr.

Results on five compounds are retold here after patent US20230013925A1, “Moraxella Treatment Using Cannabinoids” (BOTANIX PHARMACEUTICALLS LIMITED, priority 2019, published 2023).

≈ marks a conversion by molar mass, not a printed value. Where two headings read alike, the source gives them in different places. Bounds are passed on as bounds.

Turning to `C=C(C)C1CCC(C)=CC1c1c(O)cc(CCCCC)cc1O` (centres unmarked) [CBD, 2-[3-methyl-6-(1-methylethenyl)-2-cyclohexen-1-yl]-5-pentyl-1,3-benzenediol], the MIC under setting [1] was found to be 1 µg/mL (≈ 3.18 µM).
As for `C[C@H]1COc2c(N3CCN(C)CC3)c(F)cc3c(=O)c(C(=O)O)cn1c23` [LVX, levofloxacin], the MIC under setting [1] came out at 0.03 µg/mL (≈ 0.083 µM).
`C[C@@H](O)[C@H]1C(=O)N2C(C(=O)O)=C(S[C@@H]3CN[C@H](C(=O)N(C)C)C3)[C@H](C)[C@H]12` [MEM, meropenem]: the MIC under setting [1] was at most 0.03 µg/mL.
On to `CN[C@H](CC(C)C)C(=O)N[C@H]1C(=O)N[C@@H](CC(N)=O)C(=O)N[C@H]2C(=O)N[C@H]3C(=O)N[C@H](C(=O)N[C@H](C(=O)O)c4cc(O)cc(O)c4-c4cc3ccc4O)[C@H](O)c3ccc(c(Cl)c3)Oc3cc2cc(c3O[C@@H]2O[C@H](CO)[C@@H](O)[C@H](O)[C@H]2O[C@H]2C[C@](C)(N)[C@H](O)[C@H](C)O2)Oc2ccc(cc2Cl)[C@H]1O` [VAN, vancomycin], for which, where the note is “Moraxella catarrhalis”, the MIC is 32 µg/mL (≈ 22.1 µM).
As for gentamicin, under setting [1], the “MIC (lowest concentration of drug that inhibited visible growth)” value was 0.25 µg/mL.
